Test results taken from article PMC9820738, “Spectrofluorimetric and Computational Investigation of New Phthalimide Derivatives towards Human Neutrophil Elastase Inhibition and Antiproliferative Activity” (International Journal of Molecular Sciences, 2022).
Read-outs that look alike come from different tables or passages of the source.

Key:
[1] = target: T1, human neutrophil elastase (HNE) (Homo sapiens, UniProt P08246); assay: Fluorometric human neutrophil elastase (HNE) inhibition assay, MOSuc-AAPV-AMC substrate; assay type: biochemical; conditions: HNE 20 mU/mL, 25 µM substrate, 0.1 M HEPES pH 7.5, 25 °C, triplicate; read-out: IC50 ± SD, elastase inhibitory activity
T1 sequence (P08246 30-267): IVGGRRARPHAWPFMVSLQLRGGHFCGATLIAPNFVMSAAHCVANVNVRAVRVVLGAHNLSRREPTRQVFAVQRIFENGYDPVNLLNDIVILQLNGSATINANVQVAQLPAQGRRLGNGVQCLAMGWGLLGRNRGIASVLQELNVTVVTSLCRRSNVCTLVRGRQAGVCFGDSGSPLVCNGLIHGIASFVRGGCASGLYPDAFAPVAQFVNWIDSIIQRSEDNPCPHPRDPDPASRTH
Experimental: Fluorometric assay for human neutrophil elastase (HNE) inhibition was performed according to the previously presented method with some modifications, using N-methoxysuccinyl-Ala-Ala-Pro-Val-7-amido-4-methyl-coumarin (MOSuc-AAPV-AMC, Calbiochem) as substrate. […] The reaction was carried out in assay buffer containing 0.1 M HEPES (pH 7.5). Briefly, different concentration of tested compounds was incubated with 20 mU/mL of HNE (Bradford) in 25 °C. The reaction was started by addition of 25 µM elastase substrate to final reaction volume 100 µL and monitored for 30 min at 25 °C on a microplate reader (FP-8500 Spectrofluorometer, JASCO, USA) with excitation and emission wavelengths of 380 nm and 440 nm, respectively. By computing the log of inhibitors concentrations versus the percentage of activity, the IC50 values were determined by non-linear regression analysis. Assays were performed in triplicate and data presented as the mean and the standard deviation. Ursolic acid was used as the reference compound.

[2] = tested on: MV4-11 human biphenotypic B myelomonocytic leukemia cells; assay: In vitro antiproliferative assay, MV4-11; assay type: cell-based; conditions: for IC50: MV4-11, read-out: IC50 ± SD, antiproliferative activity; for SI BALB/3T3/ MV4-11: IC50 in normal cell line / IC50 in cancer cell line
Experimental: (§1) Cell preparation, in vitro antiproliferative assay, MTT and SRB cytotoxic tests were performed according to literature.

[3] = tested on: A549 lung carcinoma cells; assay: In vitro antiproliferative assay, A549; assay type: cell-based, human; conditions: for IC50: A549, read-out: IC50 ± SD, antiproliferative activity; for SI BALB/3T3/ A549: IC50 in normal cell line / IC50 in cancer cell line
Experimental: as §1

[4] = tested on: MDA-MB-231 human breast adenocarcinoma cells; assay: In vitro antiproliferative assay, MDA-MB-231; assay type: cell-based; conditions: for IC50: MDA-MB-231, read-out: IC50 ± SD, antiproliferative activity; for SI BALB/3T3/ MDA-MB-231: IC50 in normal cell line / IC50 in cancer cell line
Experimental: as §1

[5] = tested on: UMUC-3 human bladder transitional cell carcinoma cells; assay: In vitro antiproliferative assay, UMUC-3; assay type: cell-based; conditions: for IC50: UMUC-3, read-out: IC50 ± SD, antiproliferative activity; for SI BALB/3T3/ UMUC-3: IC50 in normal cell line / IC50 in cancer cell line
Experimental: as §1

[6] = tested on: BALB/3T3 normal mouse fibroblast cells; assay: In vitro cytotoxicity on normal fibroblasts, BALB/3T3; assay type: cell-based; conditions: BALB/3T3 normal mouse fibroblasts; read-out: IC50 ± SD, antiproliferative activity
Experimental: as §1

[7] = target: T1, human neutrophil elastase (HNE); assay: Kinetic analysis of the inhibition of elastase (Lineweaver–Burk, secondary plots); assay type: biochemical
Experimental: Kinetic studies were conducted in the presence of different concentrations of substrate (5, 25, 50 and 100 µM) and test compound (in the range of 0–10 µM). The reaction conditions were the same as in the HNE inhibition assay and the reaction was monitored for 10 min at 25 °C with the same Ex an Em wavelengths. By Lineweaver–Burk plots, kinetic values such as Michaelis–Menten constants and maximum velocity were determined. Next, two inhibition constants for inhibitor binding with free enzyme or enzyme–substrate complex (Ki and Kis) were obtained by plotting the secondary plot of the slopes of the determined straight lines or vertical intercept versus inhibitor concentration.

[8] = Spontaneous hydrolysis (chemical stability) in phosphate buffer, spectrophotometric; assay type: physicochemical; conditions: 0.05 M phosphate buffer pH 7.3, 25 °C, λ 305 nm
Experimental: Spontaneous compound hydrolysis studies were performed following the literature procedure. The kinetics hydrolysis of the compounds was evaluated at 25 °C in 0.05 M phosphate buffer, pH 7.3, by measuring changes in absorbance spectra during incubation using a T60U spectrophotometer (PG Instruments). The absorbance (At) at characteristic absorption maxima for each compound was measured at 10 min intervals until there was no further decrease in absorbance (Aꝏ). Using these measurements, semilogarithmic plots of the dependence of log(At–Aꝏ) on time were prepared, and k’ values were determined from the slope of these plots according to the first order reaction kinetics. Half-conversion times were calculated using equation: t1/2 = 0.693/k’.

Compound | IC50 [1] [µM] | IC50 ([2]; Homo sapiens) [µM] | IC50 ([3]; Homo sapiens) [µM] | IC50 ([4]; Homo sapiens) [µM] | IC50 ([5]; Homo sapiens, UMUC3) [µM] | IC50 [6] [µM] | Inhibition Type ([7]; Lineweaver–Burk and Dixon analysis) | Ki ([7]; inhibitor binding with free enzyme, secondary plot) [µM] | SI BALB/3T3/ MV4-11 [2] | SI BALB/3T3/ A549 [3] | SI BALB/3T3/ MDA-MB-231 [4] | SI BALB/3T3/ UMUC-3 [5] | k, rate constant of spontaneous hydrolysis [8] [min⁻¹] | half-life ([8]; read-out: t1/2, half-life for the spontaneous hydrolysis) [min] | melting point [°C] | IC50 [2] [µM] | IC50 [3] [µM] | IC50 [4] [µM] | IC50 [5] [µM]
O=C1c2ccccc2C(=O)N1CCc1csc(Nc2ccc(F)cc2)n1 [Compound 4a, 2-(2-(2-(4-Fluorophenylamino)thiazol-4-yl)ethyl)isoindoline-1,3-dione] | 29.4 ± 3.13 | 59.6 ± 4.63 | 50.7 ± 3.32 | 110 ± 24.5 | 82.3 ± 2.18 | 74.2 ± 12.2 |  |  |  |  |  |  |  |  |  |  |  |  | 
O=C1c2ccccc2C(=O)N1CCc1csc(Nc2ccc(Cl)cc2)n1 [Compound 4b, 2-(2-(2-(4-Chlorophenylamino)thiazol-4-yl)ethyl)isoindoline-1,3-dione] | 46.5 ± 4.85 | 12.2 ± 4.56 | 18.1 ± 0.94 | 86.5 ± 10.7 | 61.7 ± 1.56 | 66.2 ± 4.17 |  |  |  |  |  |  |  |  |  |  |  |  | 
O=C1c2ccccc2C(=O)N1CCc1csc(Nc2ccc(C(F)(F)F)cc2)n1 [Compound 4c, 2-(2-(2-(4-(Trifluoromethyl)phenylamino)thiazol-4-yl)ethyl)isoindoline-1,3-dione] | 13 | 46.6 ± 25.4 | 14 ± 1.56 | 77.5 ± 13.7 | 75.2 ± 6.71 | 84.9 ± 18.2 | mixed type I inhibition | 4.54 | 1.82 | 6.07 | 1.10 | 1.13 | 0.018 | 38.5 | 170 to 172 |  |  |  | 
COc1cc(Nc2nc(CCN3C(=O)c4ccccc4C3=O)cs2)cc(OC)c1OC [Compound 4d, 2-(2-(2-(3,4,5-Trimethoxyphenylamino)thiazol-4-yl)ethyl)isoindoline-1,3-dione] | 22.9 ± 1.59 | 8.21 ± 2.37 | 23.7 ± 5.23 | 48.9 ± 13.2 | 46.1 ± 7.28 | 46.8 ± 2.05 |  |  |  |  |  |  |  |  |  |  |  |  | 
O=C1c2ccccc2C(=O)N1CCc1csc(Nc2cccc3ccccc23)n1 [Compound 4e, 2-(2-(2-(Naphthalen-1-ylamino)thiazol-4-yl)ethyl)isoindoline-1,3-dione] | 15.6 ± 0.16 | 33.2 ± 12 | 41.1 ± 3.13 | 76.4 ± 11.1 | 80 ± 16.2 | 103 ± 30.7 |  |  | 3.09 | 2.50 | 1.34 | 1.28 |  |  | 161 to 162 |  |  |  | 
Cc1cc(C)cc(Nc2nc(CCN3C(=O)c4ccccc4C3=O)cs2)c1 [Compound 4f, 2-(2-(2-(3,5-Dimethylphenylamino)thiazol-4-yl)ethyl)isoindoline-1,3-dione] | 49.9 ± 0.98 | 13.2 ± 4.77 | 25.6 ± 3.63 | 86.4 ± 12.2 | 66.5 ± 9.8 | 101 ± 12.2 |  |  |  |  |  |  |  |  |  |  |  |  | 
NS(=O)(=O)c1ccc(Nc2nc(CCN3C(=O)c4ccccc4C3=O)cs2)cc1 [Compound 4g, 4-(4-(2-(1,3-Dioxoisoindolin-2-yl)ethyl)thiazol-2-ylamino)benzenesulfonamide] | 64.9 ± 7.75 | 83.3 ± 26.6 |  | 9.66 ± 1.4 | 19.8 ± 1.4 | 14.3 ± 2.1 |  |  | 0.17 |  | 1.49 | 0.72 |  |  | > 260 |  |  |  | 
O=C1c2ccccc2C(=O)N1CCc1csc(Nc2c(Cl)cc(Cl)cc2Cl)n1 [Compound 4h, 2-(2-(2-(2,4,6-Trichlorophenylamino)thiazol-4-yl)ethyl)isoindoline-1,3-dione] | 16.6 ± 2.06 | 48.5 ± 21.4 | 57.1 ± 19.4 |  | 120 ± 36 |  |  |  |  |  |  |  |  |  | 168 to 169 |  |  |  | 
CC(=O)c1ccc(Nc2nc(CCN3C(=O)c4ccccc4C3=O)cs2)cc1 [Compound 4i, 2-(2-(2-(4-Acetylphenylamino)thiazol-4-yl)ethyl)isoindoline-1,3-dione] | 25.6 ± 1.78 | 44.5 ± 20.2 | 62.9 ± 5.75 | 87.7 ± 22 | 74.1 ± 12 | 99 ± 21.2 |  |  |  |  |  |  |  |  |  |  |  |  | 
C[C@H]1[C@H](C)CC[C@]2(C(=O)O)CC[C@]3(C)C(=CC[C@@H]4[C@@]5(C)CC[C@H](O)C(C)(C)[C@@H]5CC[C@]43C)[C@H]12 [Ursolic acid, reference compound] | 5.32 ± 0.68 |  |  |  |  |  |  |  |  |  |  |  |  |  |  |  |  |  | 
N.N.[Cl][Pt][Cl] [cisplatin, reference compound] |  |  |  |  |  | 8.47 ± 1.96 |  |  |  |  |  |  |  |  |  | 1.43 ± 0.4 | 5.41 ± 0.6 | 15.6 ± 2 | 1.73 ± 0.17
